Experimental findings from patent US20070065472A1, “Benzyl-1,3-thiazolidine-2,4-dione compounds for stimulating or inducing the growth and/or for reducing the loss of keratin fibers” (L'OREAL, priority 2005, published 2007) are described below.

Take `O=C1NC(=O)C(Cc2ccccc2Oc2ccccc2)S1` (stereo not shown) [Example 1, 5-(2-phenoxybenzyl)-1,3-thiazolidine-2,4-dione]: the melting point (as a rule, the temperature, or range, at which the solid turns liquid) lay in the range of 84 to 85 °C.
